Laboratory results taken from publication PMC5770433, “A new group of synthetic phenolic-containing amphiphilic molecules for multipurpose applications: Physico-chemical characterization and cell-toxicity study” (Scientific Reports, 2018).
Where “and” joins values, the source holds several entries; their conditions need not be identical. Equal entries are not always repeated.

Tests used:
[1] = Creaming stability (creaming index) of 30% fish oil-in-water emulsions; type: physicochemical; details: 30% fish oil-in-water emulsion, storage at 5 °C, 7 days
Description: (§1) The synthetic compounds were evaluated as emulsifiers for fish oil-in-water emulsions and compared to commercial DATEM. Emulsions consisting of 30.0% fish oil were prepared using 1.5 mL (0.1 M) of emulsifier solutions in phosphate buffer (pH 7.0). Coarse emulsions were first created by homogenization of lipid and aqueous phases (PRO250, PRO Scientific, Oxford, USA) at high speed for two minutes at room temperature. Further reduction particle size was achieved by use of a probe sonicator (Branson sonifier 250, Branson ultrasonics, Danbury, US) for a period of 3 min.
To examine their creaming stability, duplicate emulsions were transferred to clear, screw-capped 15 mL vials (diameter 1.8 cm) and stored at 5 °C. By aid of daily digital photographs, the phase separation in each emulsion was monitored over 7 days. The extent of creaming was characterized by the creaming index (CI) according to Equation (2), where HA is the height of the lower, aqueous phase, and HE is the total height of emulsion[30]).1 %CI=HA/HE×100

[2] = Temp-ramp FT-IR determination of lateral lipid chain packing; type: physicochemical; details: FT-IR CH2 rocking region, 28 °C
Description: Fourier transform infrared spectroscopy (FT-IR) was applied to determine the molecular organization of the amphiphilic lipids. Spectra were recorded using an ATR-FTIR (PIKE, Madison, WI; Bruker, Ettlingen, Germany). The synthesized compounds were dried under low pressure over night, and then pressed onto a ZnSe ATR crystal mounted in a trough plate. […] Spectra were collected with a spectral resolution of 4 cm^−1 with 8 scans over the range of 3500–650 cm^−1. The FTIR spectra were analyzed by using MicroCal Origin 9.0 software.

[3] = Critical micelle concentration by pyrene fluorescence method; type: physicochemical; details: in water
Description: Critical Micelle Concentration (CMC) values of the synthetic compounds were determined by pyrene fluorescence method[28] using a Varian Cary Eclipse Fluorescence spectrometer (Agilent Technology, California, USA). The respective solutions were prepared using water previously saturated with pyrene (1 µM final concentration) in different concentrations (0.000001, 0.00001, 0.0001, 0.001, 0.01, 0.1, 1, 2.5, 5, 10, 15, 20 mM). Emission spectra of pyrene were obtained by exciting the samples at 334 nm. The fluorescence intensity ratio of I1/I3 (I1 = 373 nm, I3 = 383 nm) was plotted against sample solution concentration. The concentration at which the first break occurs was referred as the CMC value of the compound in water. Measurements were determined in triplicate.

[4] = Lipid oxidation in fish oil-in-water emulsions (TBARS assay); details: relative to emulsions with commercial DATEM, after 7 days (1 week) of storage
Description: as §1
The ability of the new emulsifiers to inhibit lipid oxidation in emulsions was evaluated using Thiobarbituric acid-reactive species (TBARS) assay. TBARS were used to measure the formation of malondialdehyde, a major product of lipid oxidation, in emulsions after one week of storage. A solution of TCA-TBA-HCl was prepared by mixing 15 g of TCA, 375 mg TBA, 1.76 ml 12 N HCl, and 82.9 ml water. […] of this solution was mixed with 20 µl of the emulsion sample previously in 1 ml of distilled water. Thereafter, the mixture was heated at 100 °C for 15 min, cooled to room temperature within 10 min under a running tap water, and centrifuged at 2000×g for 15 min[22]. TBA formed colored complexes with the secondary oxidation products, which were detected in a UV-visible spectrophotometer (Cary 50Bio, Varian, Australia) at 532 nm. The relative degree of oxidation in each emulsion was calculated with respect to the degree of oxidation in emulsions with commercial DATEM, according to Equation (3), where AS is the absorbance of samples with added stabilizer, and A0 is the absorbance of samples with no added emulsifier. Measurements were taken on duplicate emulsion samples.2 Oxidation(%)=AS/AO×100

[5] = Langmuir isotherm of monolayer; type: physicochemical; details: aqueous subphase, neutral pH
Description: (§2) Langmuir-Blodgett studies was carried out for compound C14, being the ultimate compound with both surface active and antioxidant properties, according to the method of Correa et al.[29] with slight modications. Experiments were performed in aqueous solutions at neutral pH. Briefly, 20 µl of 2 mg/mL solution of C14 in chloroform:methanol (9:1, v/v) was applied to the aqueous phase and allowed to evaporate for a period of 20 min. Thereafter, the barriers were compressed at a constant rate of ~9 Å/ (chain min) until film collapsed. After stable conditions were attained, deposition of the corresponding film was carried out onto a hydrophilic mica support at a pressure just before film collapsed. The deposited monolayers on mica were left to air dry overnight. AFM images were acquired at ambient conditions by air tapping mode using a silicon tip on a micro cantilever (Olympus Inc., Japan) with a spring constant of 26 N/m and resonant frequency of 300 kHz. All measurements were performed in the center of the sample. Analyses were done in duplicates.

[6] = Atomic force microscopy of Langmuir-Blodgett films on mica; type: physicochemical; details: film transferred to mica at ~22 mN/m
Description: as §2

| Compound | Creaming index (CI) [1] | Lipid packing mode [2] | Critical micelle concentration (CMC) [3] | Surface pressure at monolayer collapse [5] | Double-layer film thickness [6] | Monolayer film thickness [6] | melting point | Relative oxidation in emulsions (as TBARS) [4] |
| --- | --- | --- | --- | --- | --- | --- | --- | --- |
| CCCCCCCCCCCCCCCC(=O)OCC(O)COC(=O)C(CC(=O)O)OC(=O)/C=C/c1ccc(OC)c(OC)c1 (stereo not shown) [C16] | 0% | Hexagonal |  |  |  |  |  |  |
| CCCCCCCC(=O)OCC(O)COC(=O)C(CC(=O)O)OC(=O)/C=C/c1ccc(OC)c(OC)c1 (stereo not shown) [C8] | 15.1% | Hexagonal | 10 mM |  |  |  |  |  |
| CCCCCCCCCC(=O)OCC(O)COC(=O)C(CC(=O)O)OC(=O)/C=C/c1ccc(OC)c(OC)c1 (stereo not shown) [C10] | 10.35% | Hexagonal | 5 mM |  |  |  |  |  |
| CCCCCCCCCCCCCCCCCC(=O)OCC(O)COC(=O)C(CC(=O)O)OC(=O)/C=C/c1ccc(OC)c(OC)c1 (stereo not shown) [C18] | 37.2% | Orthorhombic | 0.01 mM |  |  |  | 38 °C |  |
| CCCCCCCCCCCC(=O)OCC(O)COC(=O)C(CC(=O)O)OC(=O)/C=C/c1ccc(OC)c(OC)c1 (stereo not shown) [C12] | 0% | Hexagonal |  |  |  |  |  |  |

Second part, led by results:

| Creaming index (CI) [1] | Lipid packing mode [2] | Critical micelle concentration (CMC) [3] | Surface pressure at monolayer collapse [5] | Double-layer film thickness [6] | Monolayer film thickness [6] | melting point | Compound | Relative oxidation in emulsions (as TBARS) [4] |
| --- | --- | --- | --- | --- | --- | --- | --- | --- |
| 0% | Hexagonal |  |  |  |  |  | CCCCCCCCCCCCCCCC(=O)OCC(O)COC(=O)C(CC(=O)O)OC(=O)/C=C/c1ccc(O)c(O)c1 (stereo not shown) [C16a] | 39.04 ± 0.02% |
| 0% | Hexagonal |  | 39 mN/m | 5.2 nm and 6.7 nm | 2.3 nm |  | CCCCCCCCCCCCCC(=O)OCC(O)COC(=O)C(CC(=O)O)OC(=O)/C=C/c1ccc(OC)c(OC)c1 (stereo not shown) [C14] |  |
| 0% | Hexagonal |  |  |  |  |  | CCCCCCCCCCCCCC(=O)OCC(O)COC(=O)C(CC(=O)O)OC(=O)/C=C/c1ccc(O)c(O)c1 (stereo not shown) [C14a] | 19.26 ± 0.05% |
| 0% | Hexagonal |  |  |  |  |  | CCCCCCCCCCCC(=O)OCC(O)COC(=O)C(CC(=O)O)OC(=O)/C=C/c1ccc(O)c(O)c1 (stereo not shown) [C12a] | 25.72 ± 0.03% |
